Measured values from patent publication US20050182020A1, “Ceramide de novo synthesis-based therapeutic and prophylactic methods, and related articles of manufacture” (priority 2003, published 2005).

What was measured:
HSN1 cells (4561) = test: Cholesterol / cholesterylester synthesis from 3H-mevalonate in HSN1 cells; type: cell-based, human
Procedure: (§1) FIG. 12. Increased free cholesterol synthesis in HSN cells. In order to investigate whether increased SRE-mediated gene transcription also results in increased cholesterol synthesis cells were incubated with radioactive mevalonate, a precursor which represents a committed step in cholesterol synthesis (see FIG. 11). Control and HSN1 cells were incubated for 7 h and 18 h in the presence of trace amounts of ^3H-mevalonate. Lipids were extracted and separated by thin […] chromatography (TLC). Radioactive counts in the cholesterol fraction were analyzed by liquid scintillation counting.
FIG. 14. Oleic acid increases HSN 4561 synthesis of high levels of free cholesterol but not cholesteryl ester. Cells were incubated for 4 h with ^3H-mevalonate and grown in the presence or absence of 0.3 mM oleic acid.
(§2) FIG. 16. Incubation with mevastatin decreases free cholesterol synthesis in HSN cells as well as in controls. Cells were treated for 16 h in the presence of ^3H-mevalonate to assess cholesterol de novo synthesis and several inhibitors of either cholesterol or ceramide synthesis (Mevastatin=Statin), C6 ceramide (previously shown by us to decreased SREBP levels and SRE-mediated gene transcription), cycloserine (inhibitor of serine-palmiltoyl transferase), cholesterol (classical inhibitor of de novo synthesis by negative feedback).

[1] = tested on: HSN1 lymphoblasts (HSN 4561); test: SRE-promoter reporter (adenovirus transfection) in HSN1 lymphoblasts; type: cell-based, human; conditions: 7 h
Procedure: (§3) FIG. 10. Increased SRE-mediated gene transcription in HSN1 cells (HSN 4561). Cells were transfected with an SRE-element containing promoter-reporter gene. This construct is identical to the promoter-reporter gene used in all previous studies. In order to achieve transfection in lymphoblasts, this promoter construct was subcloned into an adenovirus vector. Cells (control lymphoblasts and HSN1 lymphoblasts) were transfected for 3 h with this adenovirus vector and left in growth medium overnight. Medium was then switched to experimental medium containing 1% fatty acid free BSA (control conditions) or cholesterol/25-OH cholesterol (10 ug/ml/1 ug/ml) or oleic acid. After 7 h the luciferase activity which reflects binding of SREBP to the SRE-promoter element was measured. Because adenovirus mediated transfections are transient transfections the necessity for a transfection control arises. The adenovirus vector contains a β-gal control gene that is not regulated by experimental conditions and serves as a transfection control (standard practice).

[2] = tested on: control lymphoblasts (HSN 4513); test: SRE-promoter reporter (adenovirus transfection) in control lymphoblasts; type: cell-based, human; conditions: oleic acid, 7 h
Procedure: as §3

SREBP = test: Fluorescently labeled SREBP in cell culture after addition of DAG; type: cell-based; conditions: preliminary data in cell culture
Procedure: Data: Propanolol ([…]) inhibits SRE-mediated gene transcription to 40% (+3%) within 30 min. Resvaratrol ([…]) inhibits SRE-mediated gene transcription to 7% (±16%) within 4 h.
Preliminary data: Inhibition of PAP by propanolol or inhibition of PKD by resvaratrol both decrease SRE-mediated gene transcription. Addition of a DAG analogue that is exogenously added and thus distributes to membranes other than the Golgi results in reorientation of fluorescently labeled mature SREBP.

[3] = tested on: SRE-mediated gene transcription; test: SRE-promoter luciferase reporter gene assay in stably transfected CHO cells; type: cell-based, Chinese hamster; conditions: for SRE-mediated gene transcription (luciferase RLU/protein): myriocin 1 μM, cycloserine 500 mM, fumonisin B1 10 μM, PPMP 20 μM, NB-DNJ 40 μM, cholesterol/25-OH cholesterol 10/1 μg/ml, vs 1% BSA
Procedure: FIG. 3. Inhibition of ceramide synthesis and SRE-mediated gene transcription. (A) Decreased ceramide synthesis correlates with decreased levels of SRE-mediated gene transcription and mSREBP. […] After cell lysis, luciferase activity was analyzed, and expressed as a ratio of protein content. Data represent the average (±S.D.) of at least 4 different experiments, each performed in triplicate. […] CHO cells stably transfected with an SRE-promoter construct linked to the luciferase reporter gene were incubated for 8 h in the presence of control conditions (1% BSA) or increasing levels of myriocin (0.25-1 μM). After cell lysis, luciferase activity was analyzed, expressed as a ratio of protein content. Data represent the average (±S.D.) of at least 3 different experiments, each performed in triplicate.
FIG. 4. Increased ceramide synthesis and SRE-mediated gene transcription. (A) Increased ceramide de novo synthesis correlates with increased SRE-mediated gene transcription. On day 1, CHO cells stably transfected with an SRE-promoter construct linked to the luciferase reporter gene were plated at 80% confluency. […] Cells were harvested, lysed and analyzed for luciferase activity (measured in relative light units, RLU) and protein content. Data are expressed as percentage of control and represent the average (±S.D.) of three different experiments, each performed in triplicate. Inset: Western blot analysis: On day 1, CHO cells were plated in regular growth medium. On day 2, cells were incubated for 8 h with control medium (1% BSA) or DMS (5 μM). Whole cell extracts (30 μg protein) were loaded on a 4-14% continuous gradient SDS-PAGE gel. P and M denote the precursor (125 kd) and mature (68 kd) form of SREBP-1 in a representative experiment. (B) DMS increases ceramide de novo synthesis. CHO cells were treated for 3.5 h either with control conditions (1% BSA) or DMS (2.5-5 μM). […] Data are expressed as dpm/protein and represent a typical experiment.
(§4) FIG. 5. LY-B cells fail to recover SRE-mediated gene transcription in cholesterol depletion but recover SRE-mediated gene transcription in the presence of DMS. […] Both cell lines have been transfected to stably express an SRE-promoter construct linked to the luciferase reporter gene. On day 2, cells were incubated for 16 h with 1% BSA (control) or in the presence of cholesterol (10 μg/ml) and 25-OH cholesterol (1 μg/ml) to decrease SRE-mediated gene transcription. Then, incubation medium was switched to 1% BSA or DMS (5 μM) for 6 h. After cell lysis, luciferase activity was analyzed, expressed as a ratio of protein content. Data represent the average (±S.D.) of at least 4 different experiments, each performed in triplicate.
Cell culture and stable transfections: Cells were grown in F12-nutrient mixture medium containing 10% fetal bovine serum (FBS), 1% glutamine (v/v), 1% penicillin/streptomycin (v/v), and 10% fetal bovine serum (v/v) at 37° C. in humidified CO2 (5%). To obtain stable transfectants, cells were plated in 12-well plates at 50% confluency and transfected for 5 h in the presence of serum-free Dulbecco's modified Eagle's medium (DMEM) with pSyn SRE (1 μg/well) and pWLNeo (0.25 μg/well) using Lipofectamin (1.5 μl/well). Cells were then incubated for 2 days in growth medium. On day three, neomycin-containing medium (400 μg/ml) was added. Selection for neomycin resistant colonies was continued for three weeks. Pooled clones were analyzed for luciferase expression. Experiments were performed with pooled clones as well as with cells derived from a single clone. Cells were grown in the presence of 400 μg/ml neomycin. For experimental use, cells were plated in the absence of neomycin at least 24 h ahead in regular growth medium.
Enzyme assays: Cells to be analyzed for luciferase activity were lyzed in lysis buffer A containing 0.1% Triton X-100, 50 mM Hepes, 10 mM MgSO4, pH 7.7. Cells were scraped, collected, vortexed and briefly centrifuged to pellet cell debris. […]

HMG-CoA synthase mRNA = test: Northern blot of HMG-CoA synthase mRNA in CHO cells; type: cell-based, Chinese hamster; conditions: myriocin 1 μM, 16 h
[4] = tested on: cellular sphingomyelin levels; test: Cellular sphingomyelin levels (TLC, phosphorus); type: cell-based; conditions: within 24 h; data not shown
Excerpt: An aliquot was used for luciferase and protein determination. […] Lipids were then dried under N2. […] Absolute cpm values range between 400 and 800 cpm. […] In brief, lipids were extracted as above. Lipid extracts were run on TLC.
What is the role of cellular sphingomyelin levels on SRE-mediated gene transcription? […] LY-B cells have decreased sphingomyelin levels. Yet, SRE-mediated gene transcription is decreased in LY-B cells as well as in myriocin treated cells.

control cells (4513) = test: Cholesterol synthesis from 3H-mevalonate in control lymphoblasts; type: cell-based, human; conditions: 16 h
Procedure: as §1, §2

[5] = several animal studies; cited from earlier work
[6] = rats fed toxic levels, 20 week study (ref. 8); cited from earlier work
[7] = tested on: Niemann Pick Disease Type A fibroblasts; test: Ceramide de novo synthesis (3H-serine) in NPA fibroblasts; type: cell-based; conditions: overnight incubation with agent, vs 1% BSA
Procedure: FIG. 19. Ceramide synthesis is increased in NPA fibroblasts. Fibroblasts from different control individuals and from two different cell lines derived from Niemann Pick Disease Type A were incubated for 4 h in the presence of ^3H-serine to measure de novo ceramide synthesis after having been incubated overnight in either control medium (1% BSA) or in the presence of cholesterol or C8-Ceramide. Lipid extraction and separation were carried out.

[8] = tested on: SRE-mediated gene transcription; test: SRE-promoter luciferase reporter gene assay in LY-B cells (CHO cells mutated in LCB1 subunit of serine-palmitoyl transferase); type: cell-based, Chinese hamster; conditions: cholesterol 10 μg/ml and 25-OH cholesterol 1 μg/ml, 16 h
Procedure: as §4
Enzyme assays: Cells to be analyzed for luciferase activity were lyzed in lysis buffer A containing 0.1% Triton X-100, 50 mM Hepes, 10 mM MgSO4, pH 7.7. Cells were scraped, collected, vortexed and briefly centrifuged to pellet cell debris. An aliquot was used to measure luciferase activities in a luminometer (Berthold LB 9501, Wallac Inc., Gaithersburg, Md.) with a luciferin reagent from Promega (Madison, Wis.). Luciferase activity in relative light units (RLU) was divided by protein content (mg/ml) for each extract. […]

NPA fibroblasts = test: SRE-promoter reporter (adenoviral transfection) in NPA fibroblasts; type: cell-based; conditions: addition of cholesterol; reversible on switch to BSA
Procedure: FIG. 20. SRE-mediated gene transcription is increased in NPA fibroblasts. The hypothesis was evaluated that increased ceramide de novo synthesis affects SREBP and SRE-mediated gene transcription in Niemann Pick Type A cells. Cells were transfected with an SRE-promoter construct (using adenoviral transfection as above in HSN cells). […] Addition of cholesterol decreases SRE-mediated gene transcription and this process is also reversible.

CCCCCCCC/C=C\CCCCCCCC(=O)O [Oleic acid]
synthesis of cholesterol from 3H-mevalonate (HSN1 cells (4561); HSN 4561, 0.3 mM oleic acid, 4 h): stimulates | SRE-mediated gene transcription (luciferase/β-gal) in HSN 1 (4561) ([1]; oleic acid): does not decrease | SRE-mediated gene transcription (luciferase/β-gal) in controls [2]: does not decrease

diacylglycerol [DAG]
effect on fluorescently labeled SREBP (SREBP): attracts fluorescently labeled SREBP

CCCCCCC(=O)CCCCCC/C=C/C[C@@H](O)[C@H](O)[C@@](N)(CO)C(=O)O [myriocin]
SRE-mediated gene transcription (luciferase RLU/protein) ([3]; 8 h): significantly reduced | expression of another control β-gal reporter gene ([3]; data not shown): did not decrease | SRE-mediated gene transcription, dose dependence ([3]; myriocin 0.25-1 μM, 8 h): dose-dependently decreases | HMG-CoA synthase mRNA levels relative to control (HMG-CoA synthase mRNA): half | cellular sphingomyelin levels [4]: does not change

CC[C@H](C)C(=O)O[C@H]1CCC=C2C=C[C@H](C)[C@H](CC[C@@H]3C[C@@H](O)CC(=O)O3)[C@H]21 [mevastatin]
free cholesterol synthesis in controls (control cells (4513)): decreases | free cholesterol synthesis in HSN cells (HSN1 cells (4561); 16 h, 3H-mevalonate): decreases

CCCC[C@@H](C)[C@@H](OC(=O)C[C@@H](CC(=O)O)C(=O)O)[C@H](C[C@@H](C)C[C@H](O)CCCC[C@@H](O)C[C@H](O)[C@H](C)N)OC(=O)C[C@@H](CC(=O)O)C(=O)O [fumonisin B1]
SRE-mediated gene transcription (luciferase RLU/protein) ([3]; 8 h): significantly reduced | hepatotoxicity [5]: hepatotoxicity | plasma cholesterol levels [6]: significantly decreased

CC(C)CCC[C@@H](C)[C@H]1CC[C@H]2[C@@H]3CC=C4C[C@@H](O)CC[C@]4(C)[C@H]3CC[C@]12C [cholesterol]
ceramide de novo synthesis (3H-serine, 4 h) [7]: does not significantly decrease | decrease of SRE-mediated gene transcription in LY-B cells compared to control cells [8]: significantly stronger | sensitivity of cholesterol de novo synthesis in HSN1 cells (4561) relative to control cells (HSN1 cells (4561); 16 h, 3H-mevalonate): more sensitive | SRE-mediated gene transcription (NPA fibroblasts): decreases | SRE-mediated gene transcription (luciferase/β-gal) in HSN 1 (4561) ([1]; cholesterol/25-OH cholesterol 10/1 ug/ml): very efficient in decreasing
